In patent US20060127980A1, “Human excitatory amino acid transporter-2 gene promoter and uses thereof” (priority 2003, published 2006):

Tests used:
[1] = system: hEAAT2 promoter; assay: flhEAAT2Prom-luc and deletion mutant luciferase reporter assay in PHFA treated with modulators; type: cell-based, human; conditions: four day treatment
Method: FIG. 4A-D. Effect of modulators of hEAAT2 activity on hEAAT2 expression and hEAAT2 promoter activity in PHFA. A. A Northern analysis of hEAAT2 and GAPDH mRNA expression following treatment with EGF (30 ng/ml), TGF-α (30 ng/ml), dbcAMP (200 μM, bromo-cAMP (100 μM) or TNF-α (200 U/ml) for 7 days. B. Nuclear run-on assays determining the relative rates of hEAAT2 and GAPDH transcription as a function of 7-day treatment with the same concentrations of the indicated agents. C. A time course of mRNA expression of hEAAT2 and GAPDH following treatment with EGF, bromo-cAMP or TNF-α (same concentrations as in A.). D. Fold luciferase activity in PHFA transfected with flhEAAT2Prom-luc or various deletion mutants of hEAAT2 and non-transfected controls treated with the indicated compounds for four days.
Construction of hEAAT2 Promoter Deletion Mutants and Performance of the Luciferase Assays. 5′-deletion mutants of the hEAAT2 promoter were made with exonuclease III digestion using the Erase-A-Base System (Promega) as described for the PEG-3 promoter (Su et al., 2000, Oncogene 19(30):3411-3421). The flhEAAT2Prom-luc and flhEAAT2Prom-luc deletion mutants were cloned into the pGL3-basic luciferase reporter vector (Promega) and luciferase reporter assays were performed as described (Su et al., 2000, Oncogene 19(30):3411-3421; Su et al., 2001, Nucleic Acids Res 29(8):1661-1671), except that instead of using lipofectamine, which was toxic to PHFA, the calcium phosphate precipitation transfection technique was used (Babiss et al., 1986, Proc Natl Acad Sci USA 83(7):2167-2171).
Preferential Expression of the hEAAT2 Promoter in PHFA and Deletion Analysis of the hEAAT2 Promoter. hEAAT2 is expressed in brain-derived cells, mainly astrocytes (Tanaka et al., 1997, Science 276(5319):1699-1702; Anderson et al., 2000, Glia 32(1):1-14). Experiments were performed to confirm hEAAT2 promoter activity in normal human astrocytes and to determine expression levels in other cell types (FIG. 2A). Primary early passage and established human normal and tumor cell lines were co-transfected with a putative full-length ˜2.5 kb hEAAT2 promoter, a SacII fragment extending from bp −2426 to bp +44, was cloned into the pGL3-basic vector (Promega), where it drove expression of the firefly luciferase (luc) gene, and a pSV-β-galactosidase expression plasmid. Relative fold expression of a full length hEAAT2 promoter-luciferase (flhEAAT2Prom-luc) construct was determined as described (Su et al., 2000, Oncogene 19(30):3411-3421; Su et al., 2001, Nucleic Acids Res 29(8):1661-1671), and activity versus transfection with a pSV-β-galactosidase plasmid was calculated as described (Su et al., 2000, Oncogene 19(30):3411-3421; Su et al., 2001, Nucleic Acids Res 29(8):1661-1671) to equalize for differences in transfection efficiency.
To examine further the relationship between hEAAT2 and treatment with the various glutamate transporter modulators, transient transfection assays were performed in PHFA using the flhEAAT2Prom-luc constructs and various deletions thereof (FIG. 4D). […] In the case of dbcAMP, promoter activity was enhanced by ˜3-fold.

[2] = system: hEAAT2 promoter; assay: hEAAT2 promoter luciferase assay of agents in PHFA-Im (FIG. 11); type: cell-based, human; conditions: 10 μM
Method: (§1) FIG. 11. Effect of various agents on hEAAT2 promoter activity in immortalized primary human fetal astrocytes (PHFA-Im). A: ceftriaxone; B: amoxicillin; C: chloramphenicol; D: thiamphenicol; E: vancomycin; F: glycine; G: glutamate; H: DMSO; I: dibutyryl cAMP. PHFA-Im is a human telomerase-immortalized clone of primary human fetal astrocytes. PHFA-Im cells were seeded at 5×10^4 cells/35-mm plate. Twenty-four h later cells were untreated (CON) or received the indicated compound at a final concentration of 10 μM. Forty-eight h later the cells were transfected with a FL pGL3/EAAT2 luciferase reporter construct (5 μg) plus a pSVβGalactosidase construct (1 μg) using the calcium phosphate precipitation method (Su et al. 2003, Proc. Natl. Acad. Sci. USA 100:1955-1960). After an additional 48 h, cell lysates were prepared and luciferase activity was determined using the Luciferase Assay System Kit (Promega, E1501) and luminescence determined using a luminometer (Turner Designs, TD20/20) (Su et al. 2003, Proc. Natl. Acad. Sci. USA 100:1955-1960). Data presented are the average of 3 independent plates±S.D. Qualitatively similar results were obtained in 2 additional experiments.
as §1, with “The effects” for “FIG. 11. Effect”, “these same” for “various”, “also were examined” for “on hEAAT2 promoter activity”, “two other cell lines to confirm the generality of the findings. […] PHFA-Im is a cell line developed from a clonal isolate of a” for “immortalized”, “astrocyte immortalized by transformation with the reverse transcriptase subunit of” for “astrocytes (PHFA-Im). A: ceftriaxone; B: amoxicillin; C: chloramphenicol; D: thiamphenicol; E: vancomycin; F: glycine; G: glutamate; H: DMSO; I: dibutyryl cAMP. PHFA-Im is a”, “telomerase.” for “telomerase-immortalized clone of primary human fetal astrocytes.”

## CCCC(=O)Nc1ncnc2c1ncn2[C@@H]1O[C@@H]2COP(=O)(O)O[C@H]2[C@H]1OC(=O)CCC [dbcAMP, dibutyryl cyclic AMP]
[1]; deletion mutant
  stimulation of promoter activity after deletion of bp −2426 to bp −703: did not significantly decrease
  upregulation of promoter activity after deletion of bp −703 to bp −326: most relevant
[1]; flhEAAT2Prom-luc
  upregulation of hEAAT2 promoter activity: ~3 fold
[2]
  hEAAT2 promoter activity: potent stimulators
